Results: patent US8513250B2 (Laboratoire Biodim, priority 2007, dated 2013)
pIC50: −log10 of the molar value. Counter-ions that a name gives are not always drawn.

molecular target: T1, DltA enzyme (Streptococcus agalactiae serotype III, UniProt Q8VM67); test: DltA HTS assays (luminescent / fluorescent), inhibition of DltA enzymatic activity in vitro; type: biochemical, S. agalactiae; details: Table 1; DltA inhibition, HTS assays of method 1; read-out: IC50
T1 construct: His-tag (from pET100 vector) (N); made in house; host or cells: E. coli BL21 (DE3) Star
T1 sequence (Q8VM67 1-511): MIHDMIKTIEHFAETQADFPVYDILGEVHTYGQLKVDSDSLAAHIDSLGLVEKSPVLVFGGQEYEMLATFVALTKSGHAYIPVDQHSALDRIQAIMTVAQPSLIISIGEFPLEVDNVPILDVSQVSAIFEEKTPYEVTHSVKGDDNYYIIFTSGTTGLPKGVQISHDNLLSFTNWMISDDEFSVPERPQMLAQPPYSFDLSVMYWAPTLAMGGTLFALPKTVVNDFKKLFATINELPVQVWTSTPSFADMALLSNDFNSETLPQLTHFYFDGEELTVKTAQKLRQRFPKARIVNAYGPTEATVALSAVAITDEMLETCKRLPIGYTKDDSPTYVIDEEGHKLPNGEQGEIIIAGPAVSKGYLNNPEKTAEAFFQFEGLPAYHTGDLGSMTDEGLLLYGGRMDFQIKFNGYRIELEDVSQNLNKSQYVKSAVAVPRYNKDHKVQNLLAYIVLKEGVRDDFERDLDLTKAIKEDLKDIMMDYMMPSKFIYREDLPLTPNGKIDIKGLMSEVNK
Description: The compounds effect on DltA enzyme has been based on the measure of the inhibition of DltA activity in vitro.
To this end, a recombinant protein Dlta was expressed and purified after cloning of the gene of S. agalatiae as described below:
Methods 1: DltA HTS Assays
The assay described below makes use of dithiothreitol (DTT) instead of DltC as reactive thiol in the catalyzed reaction. In fact, the inventors have shown that DTT, but also Coenzyme A and N-Acetylcysteamine are all thiols able to replace efficiently DltC. In addition, contrary to the prior art, radioactivity is not used: all the assays are based either on luminescent ATP detection, or on fluorescent AMP detection. They are easily amenable to miniaturized formats and fast readouts as required by HTS.
The assay buffer “AB” contains 50 mM Hepes pH8.0, 10 mM MgCl2, 50 mM KCl, 0.012% Triton-X100. The following components are added in a white polystyrene Costar plate up to a final volume of 30 μL: 3 μL DMSO, or inhibitor dissolved in DMSO and 27 μL DltA enzyme and DTT in AB. After 30 min of pre-incubation at room temperature, 30 μL of Substrates mix in AB are added in each well to a final volume of 60 μL. This reaction mixture is then composed of 10 nM DltA (produced in house from S. agalactiae), 0.5 mM D-Alanine (Sigma), 0.5 μM ATP (Sigma) and 1 mM DTT (Biochemika) in assay buffer. After 90 min of incubation at room temperature, 30 μL of the revelation mix are added to a final volume of 90 μL, including the following constituents at the respective final concentrations: 2 nM luciferase (Sigma), 30 μM D-luciferin (Sigma), 100 μM N-acetylcysteamine (Aldrich). Luminescence intensity is immediately measured on an Analyst-HT (Molecular Devices) and converted into inhibition percentages. For IC50 (Inhibitory Concentration 50%) determinations, the inhibitor is added at 6 to 10 different concentrations, and the related inhibitions are fitted to a classical langmuir equilibrium model using XLFIT (IDBS).
The assay buffer “AB” contains 50 mM Hepes pH8.0, 10 mM MgCl2, 50 mM KCl, 0.012% Triton-X100. The following components are added in a black polystyrene Costar plate up to a final volume of 50 μL: 5 μL DMSO, or inhibitor dissolved in DMSO and 45 μL DltA enzyme and DTT in AB. After 30 min of pre-incubation at room temperature, 50 μL of Substrates-revelation mix in AB are added in each well to a final volume of 100 μL. This reaction mixture is then composed of 5 nM DltA (produced in house from S. agalactiae), 0.5 mM D-Alanine (Sigma), 10 μM ATP (Sigma), 1 mM DTT (Biochemika), 10 nM Adenylate kinase (produced in house), 5 u/mL Pyruvate Kinase (Sigma), 50 μM phosphoenolpyruvate (Sigma), 5 u/mL Lactate deshydrogenase (Sigma) and 3 μM NADH (Sigma) in assay buffer. Fluorescence intensity of NADH (λex=360 nm, λem=520 nm) is immediately measured kinetically by a Fluostar Optima (BMG). Inhibition percentages are derived from fitted initial velocities. For IC50 determinations, the inhibitor is added at 6 to 10 different concentrations, and the related inhibitions are fitted to a classical langmuir equilibrium model using XLFIT (IDBS). FIG. 2 represents the data obtained using this method.
The capacity of compounds to inhibit DltA enzymatic activity was assessed using the DltA HTS assays described in method 1.

Q: `OCCCNc1nc2cc(C(F)(F)F)ccc2n2c(-c3cc(-c4ccccc4)n[nH]3)cnc12` [Example 32, 3-({1-[3-phenyl-1H-pyrazol-5-yl]-7-(trifluoromethyl)imidazo[1,2-a]quinoxalin-4-yl}amino)propan-1-ol] was tested. Which pIC50 did it give?
A: 7.38

Q: How did the pIC50 turn out when `OCCCNc1nc2cc(C(F)(F)F)ccc2n2c(-c3cc(-c4cccnc4)n[nH]3)cnc12` [Example 33, 3-({1-[3-(3-pyridinyl)-1H-pyrazol-5-yl]-7-(trifluoromethyl)imidazo[1,2-a]quinoxalin-4-yl}amino)propan-1-ol] was run?
A: 7.60

Q: `OCCCNc1nc2cc(C(F)(F)F)ccc2n2c(-c3cn(Cc4ccccc4)nn3)cnc12` [Example 34] was tested. Which pIC50 did it give?
A: 6.24

Q: `OCCCNc1nc2cc(C(F)(F)F)ccc2n2c(-c3cc(O)n[nH]3)cnc12` [Example 37, 3-({1-(3-hydroxy-1H-pyrazol-5-yl)-7-(trifluoromethyl)imidazo[1,2-a]quinoxalin-4-yl}amino)propan-1-ol] was tested. Which pIC50 did it give?
A: 6.80

Q: With `OCCCNc1nc2cc(C(F)(F)F)ccc2n2c(-c3[nH]ncc3Cl)cnc12` [Example 38, 3-({1-(4-chloro-1H-pyrazol-5-yl)-7-(trifluoromethyl)imidazo[1,2-a]quinoxalin-4-yl}amino)propan-1-ol] as the compound, how does the pIC50 read?
A: 7.87

Q: With `Cc1cn[nH]c1-c1cnc2c(NCCCO)nc3cc(C(F)(F)F)ccc3n12` [Example 40, 3-({1-[4-methyl-1H-pyrazol-5-yl]-7-(trifluoromethyl)imidazo[1,2-a]quinoxalin-4-yl}amino)propan-1-ol] as the compound, how does the pIC50 read?
A: 7.24

Q: With `O=Cc1cnc2c(NCCCO)nc3cc(C(F)(F)F)ccc3n12` [Example 41, 4-[(3-hydroxypropyl)amino]-7-(trifluoromethyl)imidazo[1,2-a]quinoxaline-1-carbaldehyde] as the compound, how does the pIC50 read?
A: 5.34

Q: How did the pIC50 turn out when `OCCCNc1nc2cc(C(F)(F)F)ccc2n2c(CO)cnc12` [Example 42, 3-{[1-(hydroxymethyl)-7-(trifluoromethyl)imidazo[1,2-a]quinoxalin-4-yl]amino}propan-1-ol] was run?
A: 5.96

Q: How did the pIC50 turn out when `CNC(=O)NCc1cnc2c(NCCCO)nc3cc(C(F)(F)F)ccc3n12` [Example 43, 1-({4-[(3-hydroxypropyl)amino]-7-(trifluoromethyl)imidazo[1,2-a]quinoxalin-1-yl}methyl)-3-methylurea] was run?
A: 5.92

Q: How did the pIC50 turn out when `OCCCNc1nc2cc(C(F)(F)F)ccc2n2c(CNCc3ccccc3)cnc12` [Example 44, 3-({1-[(benzylamino)methyl]-7-(trifluoromethyl)imidazo[1,2-a]quinoxalin-4-yl}amino)propan-1-ol] was run?
A: 5.21

Q: How did the pIC50 turn out when `NCc1cnc2c(NCCCO)nc3cc(C(F)(F)F)ccc3n12` [Example 45, 3-{[1-(aminomethyl)-7-(trifluoromethyl)imidazo[1,2-a]quinoxalin-4-yl]amino}propan-1-ol] was run?
A: 5.26

Q: How did the pIC50 turn out when `OCCCNc1nc2cc(C(F)(F)F)ccc2n2c(-c3ncc[nH]3)cnc12` [Example 46, 3-{[1-(1H-imidazol-2-yl)-7-(trifluoromethyl)imidazo[1,2-a]quinoxalin-4-yl]amino}propan-1-ol] was run?
A: 5.46

Q: How did the pIC50 turn out when `O=C(O)c1cc(-c2cnc3c(NCCCO)nc4cc(C(F)(F)F)ccc4n23)[nH]n1` [Example 48, 5-{4-[(3-hydroxypropyl)amino]-7-(trifluoromethyl)imidazo[1,2-a]quinoxalin-1-yl}-1H-pyrazole-3-carboxylic acid] was run?
A: 5.30

Q: `OCCCNc1nc2cc(C(F)(F)F)ccc2n2c(-c3cc(CO)n[nH]3)cnc12` [Example 49, 3-({1-[3-(hydroxymethyl)-1H-pyrazol-5-yl]-7(trifluoromethyl)imidazo[1,2-a]quinoxalin-4-yl}amino)propan-1-ol] was tested. Which pIC50 did it give?
A: 7.80

Q: `OCCCNc1nc2cc(C(F)(F)F)c(Br)cc2n2ccnc12` [Example 52, 3-(8-bromo-7-trifluoromethyl-imidazo[1,2-a]quinoxalin-4-ylamino)-propan-1-ol] was tested. Which pIC50 did it give?
A: 5.06

Q: With `OCCCNc1nc2cc(C(F)(F)F)c(CNc3ccccn3)cc2n2ccnc12` [Example 53, 3-({8-[(pyridin-2-ylamino)methyl]-7-(trifluoromethyl)imidazo[1,2-a]quinoxalin-4-yl}amino)propan-1-ol] as the compound, how does the pIC50 read?
A: 6.29

Q: How did the pIC50 turn out when `OCCCNc1nc2cc(-c3ccccc3C(F)(F)F)ccc2n2c(-c3ccn[nH]3)cnc12` [Example 54, 3-{[1-(1H-pyrazol-5-yl)-7-(2-[trifluoromethyl]phenyl)imidazo[1,2-a]quinoxalin-4-yl]amino}propan-1-ol] was run?
A: 7.66

Q: How did the pIC50 turn out when `Cc1n[nH]c(-c2cnc3c(NCCCO)nc4cc(OC(F)(F)F)ccc4n23)n1` [Example 55] was run?
A: 7.60

Q: With `OCCCNc1nc2cc(C(F)(F)F)c(NCc3ccccc3)cc2n2ccnc12` [Example 56, 3-{[8-(benzylamino)-7-(trifluoromethyl)imidazo[1,2-a]quinoxalin-4-yl]amino}propan-1-ol] as the compound, how does the pIC50 read?
A: 6.09

Q: With `OCCCNc1nc2cc(F)c(F)cc2n2ccnc12` [Example 57, 3-[(7,8-difluoroimidazo[1,2-a]quinoxalin-4-yl)amino]propan-1-ol] as the compound, how does the pIC50 read?
A: 4.24

Q: With `O=P(O)(O)OCCCNc1nc2cc(C(F)(F)F)ccc2n2c(-c3ccn[nH]3)cnc12` [Example 58, Phosphoric acid mono-{3-[1-(2H-pyrazol-3-yl)-7-trifluoromethyl-imidazo[1,2-a]quinoxalin-4-ylamino]-propyl}ester, disodium salt] as the compound, how does the pIC50 read?
A: 4.72
